Reference: paper PMC3823697, “Intensive Mutagenesis of the Nisin Hinge Leads to the Rational Design of Enhanced Derivatives” (PLoS ONE, 2013)
Ends that are not written are not given here.

Columns and labels:
L. lactis HP [1] = experiment: Deferred antagonism assay of producer strains; assay type: cell-based, Lactococcus lactis; conditions: for Deferred Antagonism Zone Area: L. lactis NZ9800 producer spotted (approx. 3 µl) on GM17 agar, 16 h 30°C, overlaid with 0.75% agar seeded 0.5% with L. lactis HP, area of zone minus area of spot; for Deferred Antagonism Relative to WT (%): producer strain vs L. lactis HP, zone area relative to wild type nisin A producer
L. lactis HP [2] = experiment: Agar well diffusion assay with purified peptide; assay type: cell-based, Lactococcus lactis; conditions: for 100 mg L^−1 Agar Diffusion Zone Area: purified peptide 100 mg L^−1, 50 µl per well, 1.5% agar seeded 0.5% with L. lactis HP, 16 h; for 100 mg L^−1 Agar Diffusion Relative to WT (%): purified peptide 100 mg L^−1 vs L. lactis HP, zone area relative to nisin A
S. agalactiae ATCC 13813 [3] = experiment: Deferred antagonism assay of producer strains; assay type: cell-based, Streptococcus agalactiae; conditions: for Deferred Antagonism Zone Area: L. lactis NZ9800 producer spotted (approx. 3 µl) on GM17 agar, 16 h 30°C, overlaid with 0.75% agar seeded 0.5% with S. agalactiae ATCC 13813, area of zone minus area of spot; for Deferred Antagonism Relative to WT (%): producer strain vs S. agalactiae ATCC 13813, zone area relative to wild type nisin A producer
S. aureus RF122 [4] = experiment: Deferred antagonism assay of producer strains; assay type: cell-based, Staphylococcus aureus; conditions: for Deferred Antagonism Zone Area: L. lactis NZ9800 producer spotted (approx. 3 µl) on GM17 agar, 16 h 30°C, overlaid with 0.75% agar seeded 0.5% with S. aureus RF122, area of zone minus area of spot; for Deferred Antagonism Relative to WT (%): producer strain vs S. aureus RF122, zone area relative to wild type nisin A producer
S. agalactiae ATCC 13813 [5] = experiment: Agar well diffusion assay with purified peptide; assay type: cell-based, Streptococcus agalactiae; conditions: for 100 mg L^−1 Agar Diffusion Zone Area: purified peptide 100 mg L^−1, 50 µl per well, 1.5% agar seeded 0.5% with S. agalactiae ATCC 13813, 16 h; for 100 mg L^−1 Agar Diffusion Relative to WT (%): purified peptide 100 mg L^−1 vs S. agalactiae ATCC 13813, zone area relative to nisin A
M. smegmatis MC2155 [6] = experiment: Agar well diffusion assay with purified peptide; assay type: cell-based, Mycobacterium smegmatis; conditions: for 100 mg L^−1 Agar Diffusion Zone Area: purified peptide 100 mg L^−1, 50 µl per well, 0.75% agar seeded 0.5% with 40 h culture of M. smegmatis MC2155, 40 h; for 100 mg L^−1 Agar Diffusion Relative to WT (%): purified peptide 100 mg L^−1 vs M. smegmatis MC2155, zone area relative to nisin A
M. smegmatis MC2155 [7] = experiment: Deferred antagonism assay of producer strains; assay type: cell-based, Mycobacterium smegmatis; conditions: for Deferred Antagonism Zone Area: L. lactis NZ9800 producer spotted (approx. 3 µl) on GM17 agar, incubated 40 h, overlaid with 0.75% agar seeded 0.5% with M. smegmatis MC2155, area of zone minus area of spot; for Deferred Antagonism Relative to WT (%): producer strain vs M. smegmatis MC2155, zone area relative to wild type nisin A producer
S. aureus RF122 [8] = experiment: Agar well diffusion assay with purified peptide; assay type: cell-based, Staphylococcus aureus; conditions: for 100 mg L^−1 Agar Diffusion Zone Area: purified peptide 100 mg L^−1, 50 µl per well, 1.5% agar seeded 0.5% with S. aureus RF122, 16 h; for 100 mg L^−1 Agar Diffusion Relative to WT (%): purified peptide 100 mg L^−1 vs S. aureus RF122, zone area relative to nisin A
L. lactis HP [9] = experiment: Minimum inhibitory concentration (MIC) assay in broth; assay type: cell-based, Lactococcus lactis; conditions: BSA-pretreated 96-well plates, triplicate, 2-fold dilutions from 500 nM, 10^5 cfu/ml, 16 h
Procedure: (§1) Minimum inhibitory concentration assays were carried out in triplicate using 96-well plates (Sarstedt) pretreated with bovine serum albumin (BSA) as previously described. Wild type nisin and nisin derivatives were adjusted to a 500 nM (when using L. lactis as a target) or 7.5 µM (all other indicators) starting concentration and 2-fold serial dilutions of each peptide were carried out. An overnight of the target strain was subcultured and incubated to an OD600 nm of 0.5 before being diluted to give a final inoculum of 10^5cfu/ml in 200μl. The plates were incubated at an appropriate temperature and inspected after 16 hours. The MIC was determined as the lowest concentration at which no growth was visible.

S. aureus RF122 [10] = experiment: as above; assay type: cell-based, Staphylococcus aureus; conditions: BSA-pretreated 96-well plates, triplicate, 2-fold dilutions from 7.5 µM, 10^5 cfu/ml, 16 h
Procedure: as §1

S. agalactiae ATCC 13813 [11] = experiment: as above; assay type: cell-based, Streptococcus agalactiae; conditions: for MIC Specific Activity as % of WT: broth, BSA-pretreated 96-well plates, triplicate, 2-fold dilutions from 7.5 µM, 10^5 cfu/ml, 16 h
Procedure: as §1

| Substance | Deferred Antagonism Zone Area (L. lactis HP [1]) [mm^2] | 100 mg L^−1 Agar Diffusion Zone Area (L. lactis HP [2]) [mm^2] | Deferred Antagonism Zone Area (S. agalactiae ATCC 13813 [3]) [mm^2] | Deferred Antagonism Zone Area (S. aureus RF122 [4]) [mm^2] | 100 mg L^−1 Agar Diffusion Zone Area (S. agalactiae ATCC 13813 [5]) [mm^2] | 100 mg L^−1 Agar Diffusion Zone Area (M. smegmatis MC2155 [6]) [mm^2] | Deferred Antagonism Zone Area (M. smegmatis MC2155 [7]) [mm^2] | 100 mg L^−1 Agar Diffusion Zone Area (S. aureus RF122 [8]) [mm^2] | Deferred Antagonism Relative to WT (%) (L. lactis HP [1]) | MIC Specific Activity as % of WT (L. lactis HP [9]) [%] | MIC Specific Activity as % of WT (S. aureus RF122 [10]) [%] | MIC Specific Activity as % of WT (S. agalactiae ATCC 13813 [11]) [%] | Deferred Antagonism Relative to WT (%) (S. agalactiae ATCC 13813 [3]) | Deferred Antagonism Relative to WT (%) (S. aureus RF122 [4]) | 100 mg L^−1 Agar Diffusion Relative to WT (%) (S. agalactiae ATCC 13813 [5]) | 100 mg L^−1 Agar Diffusion Relative to WT (%) (M. smegmatis MC2155 [6]) | Deferred Antagonism Relative to WT (%) (M. smegmatis MC2155 [7]) | 100 mg L^−1 Agar Diffusion Relative to WT (%) (S. aureus RF122 [8]) | 100 mg L^−1 Agar Diffusion Relative to WT (%) (L. lactis HP [2]) | Improvement in broth based specific activity relative to the natural peptide (S. agalactiae ATCC 13813 [11]; broth based specific activity (MIC) assay) |
| --- | --- | --- | --- | --- | --- | --- | --- | --- | --- | --- | --- | --- | --- | --- | --- | --- | --- | --- | --- | --- |
| Nisin A (ITSISLCTPGCKTGALMGCNMKTATCHCSIHVSK; not fully specified; Lantibiotic nisin-A; UniProt P13068 24-57, looked up) [WT, 34 amino acid lantibiotic with three dehydrated amino acids and five thioether rings; hinge N20-M21-K22, reference compound] | 299.58±7.04 | 267.69±9.21 | 226.55±2.96 | 138.31±3.36 | 246.31±2.74 | 67.79±4.308 | 51.31±10.08 | 99.34±12.33 |  |  |  |  |  |  |  |  |  |  |  |  |
| SAA: nisin A derivative with hinge region consisting of SAA (rational design) (ITSISLCTPGCKTGALMGCSAATATCHCSIHVSK; also: nisin-type thioether rings and dehydrated residues, not located; UniProt P13068 24-57, looked up, variant N20S M21A K22A) | 483.14±33.89 | 344.76±18.50 | 407.98±18.452 | 236.28±13.53 | 301.62±8.18 | 101.19±11.510 | 303.85±59.93 | 130.60±4.46 | 161.28 | 50 | 25 | 100 | 180.08 | 170.83 | 122.46 | 149.27 | 592.15 | 131.47 |  |  |
| SLS: nisin A derivative with hinge region SLS (ITSISLCTPGCKTGALMGCSLSTATCHCSIHVSK; also: nisin-type thioether rings and dehydrated residues, not located; UniProt P13068 24-57, looked up, variant N20S M21L K22S) | 370.75±28.28 | 321.93±22.43 | 209.45±17.11 | 153.93±7.15 | 226.05±4.10 | 119.56±8.59 | 230.31±20.31 | 98.82±10.14 | 123.76 | 25 | <6 | 25 | 92.45 | 111.29 | 91.78 | 176.36 | 448.84 | 99.47 | 120.26 |  |
| AAA: nisin A derivative with hinge region consisting of AAA (rational design) (ITSISLCTPGCKTGALMGCAAATATCHCSIHVSK; not fully specified; also: nisin-type thioether rings and dehydrated residues, not located; UniProt P13068 24-57, looked up, variant N20A M21A K22A) | 492.83±40.27 | 416.00±17.99 | 401.32±15.62 | 292.24±11.46 | 305.58±2.39 | 149.24±4.776 | 277.65±60.42 | 155.77±3.30 | 164.51 | 100 | 25 | 200 | 177.14 | 211.29 | 124.06 | 220.15 | 541.09 | 156.81 | 155.41 | two-fold improvement |
| NAI: nisin A derivative with hinge region NAI (ITSISLCTPGCKTGALMGCNAITATCHCSIHVSK; also: nisin-type thioether rings and dehydrated residues, not located; UniProt P13068 24-57, looked up, variant M21A K22I) | 439.52±47.88 | 371.32±19.60 | 318.81±7.915 |  | 291.52±8.46 | 78.50±8.16 | 270.04±58.30 | 129.75±11.36 | 146.71 | 100 | 25 | 200 | 140.72 | 118.02 | 118.36 | 115.8 | 526.26 | 130.61 |  |  |
